Experimental findings from EPA's ToxValDB 9.5 are described below.

“And” between values parts separate entries of the source, which are not always exact repeats. Identical values can stand only once.

Data set [1] has as its system Rattus norvegicus. The note with it: oral.
In data set [2] the test system is Rattus norvegicus. The note with it: repeat dose other; oral.
In data set [3] the test system is Rattus norvegicus. As to conditions: subchronic.
The test system of data set [4] is Rattus norvegicus. As to conditions: uterotrophic; duration: 1 days; injection; intraperitoneal; Active.
Data set [5] has as its system Rattus norvegicus. As to conditions: subchronic, oral, diet, Fischer 344, Body Weight Changes: decrease + Food Consumption + Hematology: Hgb decrease, RBC decrease, MetHgb increase + Blood Chemistry: TP decrease, ….
The test system of data set [6] is Mus musculus. The note with it: repeat dose other; oral.
For data set [7], the system named is Rattus norvegicus. The note with it: for LD50: acute, Wistar; for LOAEL / NOAEL: duration: 19 days, inhalation, Sprague-Dawley.
The test system of data set [8] is Mus musculus. The note with it: for LD50: acute; for LOAEL / NOAEL: gavage; for LOAEL / NOAEL / NOAEL (% diet) / LOAEL (% diet): CD1; for NOAEL (% diet) / LOAEL (% diet): duration: 105 days, drinking water.
Where [9] appears, read: reproduction developmental, duration: 55 days, oral, generation: F0.
Setting [10] is: reproduction developmental, duration: 112 days, oral, generation: F0.
Where [11] appears, read: reproduction developmental, duration: 112 days, oral, generation: F1.
Where [12] appears, read: reproduction developmental, oral, generation: F1.
Setting [13] is: reproduction developmental, oral, F.

`CC1(C)CCCCC1(C)C` [Tetramethylcyclohexane] had a no observed adverse effect level (NOAEL) in the data set with Rattus norvegicus [1] (subchronic, duration: 90 days, diet, M/F, Sprague-Dawley, Whole Body Effects) of 3000 mg/kg-day.

As for `CC(=O)CC(C)C` [4-Methyl-2-pentanone], the NOAEL is 25 mg/kg-day in the data set with Rattus norvegicus [2] and 250 mg/kg-day in the data set on Rattus norvegicus [3] (duration: 13 weeks, oral, gavage, Kidney: Increased absolute weight in females + Kidney: Increased relative weight in females + Kidney: Increased urinary protein levels in …). Moreover, the NOEL in the data set with Rattus norvegicus [3] (duration: 90 days, inhalation, intermittent, Kidney: Effects + Liver: Increased weight) was determined as 205 mg/m3.

Regarding `CCCCCCCCCC` [Decane], the NOAEL in the data set on Rattus norvegicus [1] (subchronic, duration: 8 weeks, gavage, M/F, Sprague-Dawley) was found to be 1000 mg/kg-day.

In the data set with Rattus norvegicus [4], `Cc1ccc([N+](=O)[O-])cc1` [4-Nitrotoluene] returned an LEL of 30 mg/kg-day. The results for the NOEL in the data set with Rattus norvegicus [5] (F) and with Rattus norvegicus [5] (M/F) were less than 44 mg/kg-day and less than 60 mg/kg-day, respectively. The compound also displayed an LOAEL in the data set on Rattus norvegicus [1] (subchronic, duration: 13 weeks, diet, M, Fischer 344, Immune) of 42 mg/kg-day.

As to `[Na+].[O]=[Nb](=[O])[O-]` [Sodium niobate (NaNbO3)], in the data set with Mus musculus [6], the lowest observed adverse effect level (LOAEL) was 1.55 mg/kg-day and the NOAEL is 0.155 mg/kg-day.

Turning to `CCO` [Ethanol], the LOAEL in the data set on Rattus norvegicus [2] was 319 mg/kg-day; in the data set with Rattus norvegicus [7] (developmental), greater than 37700 mg/m3; with Rattus norvegicus [7] (reproduction developmental, F), 37700 mg/m3; in the data set on Mus musculus [8] (developmental, oral) it was greater than 6400 mg/kg-day; in the data set with Mus musculus [8] (setting [13]), 3600 mg/kg-day. The NOAEL is 31.9 mg/kg-day in the data set with Rattus norvegicus [2]; no less than 37700 mg/m3 in the data set on Rattus norvegicus [7] (developmental); 30100 mg/m3 in the data set with Rattus norvegicus [7] (reproduction developmental, F); no less than 6400 mg/kg-day in the data set on Mus musculus [8] (developmental, oral); 2200 mg/kg-day in the data set with Mus musculus [8] (setting [13]). Moreover, the LD50 with Rattus norvegicus [7] (injection, Intraperitoneal) was 6710 mg/kg and 5100 mg/kg; in the data set on Rattus norvegicus [7] (oral), 10600 mg/kg and 7060 mg/kg; in the data set on Mus musculus [8] (injection, Intraperitoneal, Swiss-Webster), 9200 mg/kg; in the data set with Mus musculus [8] (oral, NMRI), 8300 mg/kg. In addition, the “LOAEL (% diet)” value in the data set with Rattus norvegicus [7] (setting [9]) was 5; with Rattus norvegicus [7] (setting [10]), no more than 5; in the data set with Rattus norvegicus [7] (setting [11]), greater than 5; in the data set on Mus musculus [8] (setting [12]), 15; in the data set with Mus musculus [8] (reproduction developmental, oral, generation: F2), greater than 15. Also, the “NOAEL (% diet)” value in the data set on Rattus norvegicus [7] (setting [9]) is 2; in the data set on Rattus norvegicus [7] (setting [10]) it was less than 5; with Rattus norvegicus [7] (setting [11]), no more than 5; with Mus musculus [8] (reproduction developmental, oral, generation: F0), 15; with Mus musculus [8] (setting [12]), 10.

`O=[N+]([O-])[O-].O=[N+]([O-])[O-].O=[N+]([O-])[O-].[Sm+3]` [Samarium nitrate] had an LOAEL with Rattus norvegicus [1] (chronic, duration: 5 months, drinking water, M/F, Sprague-Dawley) of 0.438 mg/kg-day.

Compound `Clc1cc(Cl)c(Cl)c(-c2cc(Cl)c(-c3cc(Cl)c(Cl)c(Cl)c3)c(Cl)c2Cl)c1` [Aroclor 5460] came in with an NOAEL in the data set with Rattus norvegicus [1] (chronic, duration: 95 days, diet, M, albino) of 7.13 mg/kg-day.

As to `ClC=C(Cl)CCl` [1,2,3-Trichloropropene], the no observed adverse effect level (NOAEL) in the data set on Rattus norvegicus [1] (short-term, duration: 4 weeks, gavage, M/F, Crl:CD(SD), respiratory) was determined as 30 mg/kg-day.

Compound `Nc1cccc([N+](=O)[O-])c1` [3-Nitroaniline] yielded an LOAEL in the data set with Rattus norvegicus [1] (short-term, duration: 28 days, gavage, M/F, Fischer 344) of 15 mg/kg-day.
